Reference: article PMC13266999, “Designing Antibiotics with Inherent Resistance to Efflux as a Strategy to Revive Discovery against Multidrug-Resistant Pathogens” (Journal of Medicinal Chemistry, 2026)
In brackets after ≈: the same amount, converted by molar mass. Read-outs that look alike come from different tables or passages of the source.

Assays:
S. aureus [1] = assay: MIC (microbroth dilution); type: cell-based, Staphylococcus aureus
Procedure, shortened: (§1)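 Broth microdilution MICs, defined as lowest compound level without visible growth (OD600 read), on bacteria grown overnight to stationary phase then diluted. Twofold compound dilutions; some wells also received PMBN, final 30 μg/mL, to permeabilize the outer membrane.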

Pharmacokinetics = conditions: male, ICR (CD-1), mouse
Experimental: Pharmacokinetic studies were performed in male ICR (CD-1) mice obtained from Charles River, UK. […] Blood samples were collected from the caudal vein into anticoagulant-treated capillaries at predetermined time points up to 8 h, with terminal cardiac puncture at 8 h. Plasma samples were stored at −80 °C until analysis. […] A compound-specific LC-MS/MS method was developed for each test article using matrix-matched calibrators following protein precipitation of samples.

K. pneumoniae = assay: MIC (microbroth dilution); type: cell-based, Klebsiella pneumoniae
Procedure, shortened: as §1

Acinetobacter baumannii = assay: MIC (microbroth dilution); type: cell-based; conditions: Acinetobacter baumannii
Procedure, shortened: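 Broth microdilution MICs were run in tryptic soy broth, or for Streptococcus spp. in cation-adjusted Mueller Hinton broth with 2.5% lysed horse blood, using overnight stationary-phase cultures back-diluted. MIC was the lowest concentration with no visible growth, with OD600 also read. Some MICs included PMBN at 30 μg/mL final.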

E. coli = assay: Mutation frequency and agar MIC; type: cell-based
Experimental: (§2) Mutation frequencies were performed on solid media at supra-inhibitory concentrations. First, the agar MIC was performed to account for any issues in solubility of compounds in solid media. Agar plates were prepared with 2-fold dilutions of compound.
(§3) For the mutation frequency assay, bacteria from an overnight culture were grown to mid exponential phase in liquid broth, then 100 μL was spread onto an agar plate containing compound at concentrations above the agar MIC. A Miles-Misra was also conducted on an antibiotic-free agar plate to determine the CFU/mL of the starting population. […] The mutation frequency was calculated by dividing the number of colonies on supra inhibitory con-centration plates by the starting population.

A. baumannii = assay: Mutation frequency and agar MIC; type: cell-based; conditions: A118
Experimental: as §2, §3

S. aureus [2] = assay: Mutation frequency and agar MIC; type: cell-based
Experimental: as §2, §3

C[C@H]1COc2c(N3CCN(C)CC3)c(F)cc3c(=O)c(C(=O)O)cn1c23 [Levofloxacin, (S)-9-Fluoro-3-methyl-10-(4-methylpiperazin-1-yl)-7-oxo-2,3-dihydro-7H-[1,4]oxazino[2,3,4-ij]quinoline-6-carboxylic acid, reference compound]
MIC (S. aureus [1]; ATCC 9144): 0.25 µg/mL (≈ 0.692 µM)
MIC (S. aureus [1]; SA-1199): 0.25 µg/mL (≈ 0.692 µM)
MIC (S. aureus [1]; SA-1199B (NorA-overexpressing)): 2 µg/mL (≈ 5.53 µM)
MIC (S. aureus [1]; Staphylococcus aureus, 1199, + 4% albumin, read-out: MIC): 0.25 µg/mL
MIC (S. aureus [1]; Staphylococcus aureus, 1199b, + 4% albumin, read-out: MIC): 2 µg/mL
MIC (S. aureus [1]; Staphylococcus aureus, ATCC9144, ATCC 9144, + 4% albumin, read-out: MIC): 0.25 µg/mL
MIC (S. aureus [1]; Staphylococcus aureus, ATCC9144, ATCC 9144, read-out: MIC): 0.125 µg/mL (≈ 0.346 µM)
MIC (S. aureus [1]; Staphylococcus aureus, NCTC13277, NCTC 13277, + 4% albumin, read-out: MIC): 16 µg/mL
MIC (S. aureus [1]; Staphylococcus aureus, NCTC13277, NCTC 13277, read-out: MIC): 16 µg/mL (≈ 44.3 µM)
MIC (S. aureus [1]; Staphylococcus aureus, NCTC13616, NCTC 13616, + 4% albumin, read-out: MIC): 16 µg/mL
MIC (S. aureus [1]; Staphylococcus aureus, NCTC13616, NCTC 13616, read-out: MIC): 16 µg/mL (≈ 44.3 µM)
MIC (S. aureus [1]; Staphylococcus aureus, SA-1199, read-out: MIC): 0.125 µg/mL (≈ 0.346 µM)
MIC (S. aureus [1]; Staphylococcus aureus, SA-1199B (NorA-overexpressing)): 1 µg/mL (≈ 2.77 µM)
half-life (Pharmacokinetics; in vivo, po, 20 mg/kg): 5.7 h
AUC(0-inf) (Pharmacokinetics; plasma, iv, 5 mg/kg): 9170 ng·h/mL
MIC (K. pneumoniae; Klebsiella pneumoniae): 0.125 µg/mL (≈ 0.346 µM)
MIC (K. pneumoniae; Klebsiella pneumoniae, NCTC13368, NCTC 13368, read-out: MIC): 2 µg/mL (≈ 5.53 µM)
MIC (K. pneumoniae; TW3): 0.125 µg/mL (≈ 0.346 µM)
MIC (Acinetobacter baumannii; A118): ≤ 0.06 µg/mL
MIC (Acinetobacter baumannii; ATCC17978, ATCC 17978, read-out: MIC): 0.125 µg/mL (≈ 0.346 µM)
MIC (Acinetobacter baumannii; BAA1709, BAA-1709, read-out: MIC): 0.125 µg/mL (≈ 0.346 µM)
MIC (Acinetobacter baumannii; BAA1710, BAA-1710 (AYE), read-out: MIC): 4 µg/mL (≈ 11.1 µM)
MIC (Acinetobacter baumannii; BAA2093, BAA-2093, read-out: MIC): 0.06 µg/mL (≈ 0.166 µM)
MIC (Acinetobacter baumannii; NCTC10303, NCTC 10303, read-out: MIC): 0.125 µg/mL (≈ 0.346 µM)
MIC (Acinetobacter baumannii; NCTC12156, NCTC 12156, read-out: MIC): 1 µg/mL (≈ 2.77 µM)
MIC (Acinetobacter baumannii; NCTC13302, NCTC 13302, oxa24, read-out: MIC): 4 µg/mL (≈ 11.1 µM)
MIC (Acinetobacter baumannii; NCTC13424, NCTC 13424, oxa23, read-out: MIC): 64 µg/mL (≈ 177 µM)
MIC (Acinetobacter baumannii; UKA1, oxa23, read-out: MIC): 2 µg/mL (≈ 5.53 µM)
MIC (Acinetobacter baumannii; UKA2, Low resistance, read-out: MIC): 4 µg/mL (≈ 11.1 µM)
MIC (Acinetobacter baumannii; UKA9, read-out: MIC): 0.125 µg/mL (≈ 0.346 µM)
MIC (Acinetobacter baumannii; UKA12, oxa23, read-out: MIC): 8 µg/mL (≈ 22.1 µM)
MIC (Acinetobacter baumannii; UKA13, oxa23, read-out: MIC): 16 µg/mL (≈ 44.3 µM)
MIC (Acinetobacter baumannii; UKA15, oxa23, read-out: MIC): 4 µg/mL (≈ 11.1 µM)
MIC (Acinetobacter baumannii; UKA19, read-out: MIC): 1 µg/mL (≈ 2.77 µM)
MIC (Acinetobacter baumannii; W1, read-out: MIC): 8 µg/mL (≈ 22.1 µM)
MIC50 (Acinetobacter baumannii; panel of 25 A. baumannii strains): 4 µg/mL (≈ 11.1 µM)
Agar MIC (E. coli; NCTC 12241): 0.03 µg/mL
Agar MIC (E. coli; NCTC 12923): 0.0078 µg/mL
Agar MIC (A. baumannii): 0.06 µg/mL
Agar MIC (S. aureus [2]; ATCC 9144): 0.12 µg/mL
Agar MIC (S. aureus [2]; NCTC 13616): 4 µg/mL
